Assay results taken from article PMC4414724 (Chemico-biological interactions, 2015).
Like-named read-outs stand apart in the source and are kept apart here.

Tests used:
[1] = target: rat liver alcohol dehydrogenase (Rattus norvegicus, UniProt P06757); test: Oxidation of alcohols by isolated rat liver alcohol dehydrogenase
horse liver ADH1E = horse liver ADH1E (Equus caballus, UniProt P00327); test: Reactions of horse liver ADH1E with 1,5-pentanediol and 5-hydroxypentanal; type: biochemical; conditions: for concentration formed in dismutation reaction: 5 mM 5-hydroxypentanal, 1 mM NAD+, 0.01 mg/mL ADH, at 12 h, GC
Sequence of horse liver ADH1E (P00327 2-375 limits assumed): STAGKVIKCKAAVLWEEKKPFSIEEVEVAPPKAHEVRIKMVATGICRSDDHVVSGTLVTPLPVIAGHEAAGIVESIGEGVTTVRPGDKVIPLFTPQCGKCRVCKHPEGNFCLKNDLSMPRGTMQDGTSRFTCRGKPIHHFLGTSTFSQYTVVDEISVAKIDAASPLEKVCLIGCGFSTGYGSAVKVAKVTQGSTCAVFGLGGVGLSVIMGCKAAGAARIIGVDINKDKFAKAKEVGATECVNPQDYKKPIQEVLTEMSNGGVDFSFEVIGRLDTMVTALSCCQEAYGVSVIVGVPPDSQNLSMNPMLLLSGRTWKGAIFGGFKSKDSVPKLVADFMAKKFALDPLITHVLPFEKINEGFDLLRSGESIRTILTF

ethanol elimination = conditions: cited from earlier work
methanol metabolism = conditions: cited from earlier work
rat liver ADH = conditions: read-out: in vitro Ki (competitive against alcohol); cited from earlier work
cytochrome P-450 = conditions: read-out: in vitro Ki; cited from earlier work
ADH3 = ADH3 (UniProt P12711); conditions: cited from earlier work
[2] = tested on: microsomal ethanol oxidizing system (NADPH-dependent cytochrome P-450 enzymes); conditions: cited from earlier work
[3] = humans; cited from earlier work
[4] = cited from earlier work
rat liver ADH1 = conditions: cited from earlier work
[5] = data for zero order elimination, rats without inhibitors
[6] = calculated from kinetic constants with Michaelis-Menten equation for 5 mM alcohol
[7] = from inhibition by 1 mmole/kg 4-methylpyrazole
[8] = observed rate without inhibitors minus the rate with 1 mmole/kg 4-methylpyrazole
[9] = primary alcohols and diols, doses of 5–20 mmole/kg
[10] = 83 mM potassium phosphate, 40 mM KCl, pH 7.3, 37 °C, 0.5 mM NAD+
[11] = rats fasted 24 h, dose mmole/kg: 2-propanol 17, 2-propanol-d7 15
[12] = secondary alcohols, doses of 5–10 mmole/kg
[13] = uninhibited rate at higher 4-methylpyrazole and isobutyramide

Sequence of rat liver alcohol dehydrogenase (P06757 2-376 limits assumed): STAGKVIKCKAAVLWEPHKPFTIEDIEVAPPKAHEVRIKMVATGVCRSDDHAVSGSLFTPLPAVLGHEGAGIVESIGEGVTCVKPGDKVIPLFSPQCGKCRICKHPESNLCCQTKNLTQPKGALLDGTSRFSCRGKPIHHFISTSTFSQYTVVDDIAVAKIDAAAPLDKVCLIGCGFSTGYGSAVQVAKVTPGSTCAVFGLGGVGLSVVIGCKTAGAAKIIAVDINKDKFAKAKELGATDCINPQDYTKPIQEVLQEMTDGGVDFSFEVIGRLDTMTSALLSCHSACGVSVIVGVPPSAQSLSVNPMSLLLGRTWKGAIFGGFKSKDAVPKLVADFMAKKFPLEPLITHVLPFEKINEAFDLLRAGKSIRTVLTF

## OCCO [1,2-Ethanediol, 1,2-ethanediol]
rat, in vivo, ip
  r (fraction of body weight accessible to the alcohol): 0.72 ± 0.08 mL/g
[1]; pH 7.3
  V rel (Vmax relative to ethanol as substrate): 0.99 ± 0.25
  Vrel/K: 0.0013

## CC(O)CCO (stereo not drawn) [1,3-Butanediol, 1,3-butanediol]
[5]
  in vivo rate of elimination: 5.0 ± 0.3 mmol/kg/h
male, rat, in vivo
  Rate due to ADH: 4.1
male, rat, in vivo, ip
  r (fraction of body weight accessible to the alcohol): 0.82 ± 0.05 mL/g
rat, in vivo
  %ADH (estimated percentage of elimination due to ADH): 82%
[1]; [6]
  in vitro v rel: 0.44

## OCCCO [1,3-Propanediol, 1,3-propanediol]
[5]
  in vivo rate of elimination: 2.7 ± 0.8 mmol/kg/h
[7]
  %ADH (estimated percentage of elimination due to ADH): 63%
[8]
  Rate due to ADH: 1.7
[9]
  kinetics of elimination in rats (order): zero-order kinetics
[1]; [10]
  Km: 24 ± 2 mM
  V rel (Vmax relative to ethanol as substrate): 0.75 ± 0.04
[1]; [6]
  in vitro v rel: 0.13
[1]; pH 7.3, 37 °C, 0.5 mM NAD+
  Vrel/K: 0.031

## OCCCCO [1,4-Butanediol, 1,4-butanediol]
male, rat, in vivo
  Rate due to ADH: 5.8
  in vivo rate of elimination: 6.7 ± 0.1 mmol/kg/h
male, rat, in vivo, ip
  r (fraction of body weight accessible to the alcohol): 1.3 ± 0.2 mL/g
rat, in vivo
  %ADH (estimated percentage of elimination due to ADH): 86%
  kinetics of elimination in rats (order): zero-order kinetics
[1]
  in vitro v rel: 0.52
[1]; pH 7.3
  V rel (Vmax relative to ethanol as substrate): 1.5 ± 0.3
  Vrel/K: 0.16

## OCCCCCO [1,5-Pentanediol, 1,5-pentanediol]
Horse liver ADH1E
  Vmax relative to the activity on ethanol: 1.1
  concentration formed in dismutation reaction: ~ 2 mM
[9]
  kinetics of elimination in rats (order): zero-order kinetics
[1]; [10]
  V rel (Vmax relative to ethanol as substrate): 3.6 ± 1.3
[1]; pH 7.3, 37 °C, 0.5 mM NAD+
  Vrel/K: 1.0

## CCCCO [1-Butanol, 1-butanol]
[7]
  %ADH (estimated percentage of elimination due to ADH): 56%
rat, in vivo
  in vivo rate of elimination: 3.2 ± 0.4 mmol/kg/h
[1]; [10]
  Km: 0.14 ± 0.03 mM
  V rel (Vmax relative to ethanol as substrate): 1.3 ± 0.1
[1]; [6]
  in vitro v rel: 1.3
[1]; pH 7.3, 37 °C, 0.5 mM NAD+
  Vrel/K: 9.3

## CCCO [1-Propanol, 1-propanol]
[7]
  %ADH (estimated percentage of elimination due to ADH): 81%
rat, in vivo
  Rate due to ADH: 4.3
  in vivo rate of elimination: 5.3 ± 0.5 mmol/kg/h
  kinetics of elimination in rats (order): zero-order kinetics
rat, in vivo, ip
  r (fraction of body weight accessible to the alcohol): 0.67 ± 0.09 mL/g
[1]; [10]
  Km: 0.22 ± 0.03 mM
  V rel (Vmax relative to ethanol as substrate): 0.95 ± 0.07
[1]; [6]
  in vitro v rel: 0.91
[1]; pH 7.3, 37 °C, 0.5 mM NAD+
  Vrel/K: 4.3

## CCC(C)O (stereo not drawn) [2-Butanol, 2-butanol]
[7]
  %ADH (estimated percentage of elimination due to ADH): 68%
rat, in vivo
  Rate due to ADH: 1.7
  in vivo rate of elimination: 2.5 ± 0.4 mmol/kg/h
  kinetics of elimination in rats (order): first order kinetics
rat, in vivo, ip
  10^4 k1 (first order, alcohol to ketone): 112 ± 17 min^−1
  10^4 k2 (first order, elimination of ketone): 37 ± 4 min^−1
  k2 (zero order, elimination of ketone): 1.1 ± 0.2 mmol/kg/h
  r: 0.74 ± 0.08 mL/g
[1]; [10]
  Km: 12 ± 6 mM
  V rel (Vmax relative to ethanol as substrate): 0.48 ± 0.03
[1]; [6]
  in vitro v rel: 0.14
[1]; pH 7.3, 37 °C, 0.5 mM NAD+
  Vrel/K: 0.04

## CCC(C)=O [2-Butanone]
rat, in vivo, ip
  10^4 k2 (first order, elimination of ketone): 31 ± 2 min^−1
  k2 (zero order, elimination of ketone): 1.3 mmol/kg/h
  r: 0.81 mL/g

## CC(C)CO [2-Methyl-1-propanol, 2-methyl-1-propanol]
[7]
  %ADH (estimated percentage of elimination due to ADH): 66%
rat, in vivo
  in vivo rate of elimination: 3.8 ± 0.5 mmol/kg/h
[1]; [10]
  Km: 0.19 ± 0.04 mM
  V rel (Vmax relative to ethanol as substrate): 0.80 ± 0.04
[1]; [6]
  in vitro v rel: 0.77
[1]; pH 7.3, 37 °C, 0.5 mM NAD+
  Vrel/K: 4.2

## CC(C)O [2-Propanol, 2-propanol]
By 1 mmole/kg of 4-methylpyrazole
  inhibition of the rate of elimination: 55%
Fed rats, 10 mmole/kg isobutyramide (IBA), dose 10 mmole/kg
  k2 (zero order, elimination of ketone): 0.44 mmol/kg/h
[7]
  %ADH (estimated percentage of elimination due to ADH): 55%
rat, in vivo
  10^4 k1 (first order, alcohol to ketone): 42 ± 4 min^−1
  10^4 k2 (first order, elimination of ketone): 14.3 ± 0.6 min^−1
  Km: 58 ± 20 mM
  Vmax, Michaelis-Menten fit of elimination in vivo: 0.38 ± 0.10 mM/min
  r: 0.75 ± 0.01 mL/g
[11]
  k2 (zero order, elimination of ketone): 0.64 ± 0.02 mmol/kg/h
[1]; [10]
  V rel (Vmax relative to ethanol as substrate): 0.40 ± 0.02
[1]; 83 mM potassium phosphate, 40 mM KCl, pH 7.3, 37 °C, 0.5 mM NAD+, listed as 2-propanol
  Km: 36 ± 7 mM
[1]; [6]
  in vitro v rel: 0.049
[1]; pH 7.3, 37 °C, 0.5 mM NAD+
  Vrel/K: 0.011

## CC(C)O [2-Propanol-d7, 2-propanol-d7]
[1]; 83 mM potassium phosphate, 40 mM KCl, pH 7.3, 37 °C, 0.5 mM NAD+, listed as 2-propanol-d7
  Km: 83 ± 15 mM

## [2H]C([2H])([2H])C([2H])(O)C([2H])([2H])[2H] [2-Propanol-d7, 2-propanol-d7]
rat, in vivo
  10^4 k1 (first order, alcohol to ketone): 18 ± 2 min^−1
  10^4 k2 (first order, elimination of ketone): 13 ± 2 min^−1
  k2 (zero order, elimination of ketone): 0.44 ± 0.06 mmol/kg/h
rat, in vivo, ip
  10^4 k1 (first order, alcohol to ketone): 25 ± 2 min^−1
  10^4 k2 (first order, elimination of ketone): 19 ± 4 min^−1
  k2 (zero order, elimination of ketone): 0.59 ± 0.08 mmol/kg/h
[11]
  r: 0.70 ± 0.03 mL/g
[12]
  kinetics of elimination in rats (order): first order kinetics
[1]; [10]
  V rel (Vmax relative to ethanol as substrate): 0.20 ± 0.02
[1]; [6]
  in vitro v rel: 0.011
[1]; pH 7.3, 37 °C, 0.5 mM NAD+
  Vrel/K: 0.0024

## Nc1nc[nH]n1 [3-Aminotriazole, 3-Amino-1,2,4-triazole]
Ethanol elimination
  inhibition of ethanol metabolism in rats: ~ 10%
Methanol metabolism
  inhibition of methanol metabolism: ~ 35%

## CC(C)CCO [3-Methyl-1-butanol, 3-methyl-1-butanol]
[7]
  %ADH (estimated percentage of elimination due to ADH): 61%
male, Sprague-Dawley, rat, in vivo
  in vivo rate of elimination: 4.6 ± 0.8 mmol/kg/h
[1]; [10]
  V rel (Vmax relative to ethanol as substrate): 0.54 ± 0.02
[1]; [6]
  in vitro v rel: 0.53
[1]; pH 7.3
  Vrel/K: 13

## CCC(O)CC [3-Pentanol, 3-pentanol]
[7]
  %ADH (estimated percentage of elimination due to ADH): 90%
[8]
  Rate due to ADH: 3.6
[12]
  kinetics of elimination in rats (order): first order kinetics
[1]; [10]
  V rel (Vmax relative to ethanol as substrate): 0.69 ± 0.03
[1]; [6]
  in vitro v rel: 0.35
[1]; pH 7.3, 37 °C, 0.5 mM NAD+
  Vrel/K: 0.14

## Cc1cn[nH]c1 [4-methylpyrazole]
Rat liver ADH
  Ki: 0.00011 mM
Ethanol elimination; in the rat
  effective, in vivo, competitive Ki: 1.4 µmol/kg
Ethanol elimination; inhibitor dose 1 mmole/kg, ethanol 20 mmole/kg
  inhibition of elimination of ethanol: 87%
Cytochrome P-450
  Ki: 5.7 mM

## OCc1ccccc1 [Benzyl alcohol, benzyl alcohol]
[1]
  Ki: 27 mM
[1]; [10]
  V rel (Vmax relative to ethanol as substrate): 0.47 ± 0.03
[1]; pH 7.3, 37 °C, 0.5 mM NAD+
  Vrel/K: 13

## OC1CCCCC1 [Cyclohexanol, cyclohexanol]
[7]
  %ADH (estimated percentage of elimination due to ADH): 74%
male, rat, in vivo
  Rate due to ADH: 3.2
  in vivo rate of elimination: 4.3 ± 1.5 mmol/kg/h
male, rat, in vivo, ip
  10^4 k1 (first order, alcohol to ketone): 229 ± 70 min^−1
  10^4 k2 (first order, elimination of ketone): 50 ± 6 min^−1
  r: 0.75 ± 0.21 mL/g
[1]; [6]
  in vitro v rel: 0.90

## O=C1CCCCC1 [Cyclohexanone]
male, rat, in vivo, ip
  10^4 k1 (first order, alcohol to ketone): 176 ± 13 min^−1
  10^4 k2 (first order, elimination of ketone): 67 ± 3 min^−1
  r: 0.53 mL/g

## OC1CCCC1 [Cyclopentanol, cyclopentanol]
[7]
  %ADH (estimated percentage of elimination due to ADH): 64%
[8]
  Rate due to ADH: 3.0
[12]
  kinetics of elimination in rats (order): first order kinetics
[1]; [10]
  V rel (Vmax relative to ethanol as substrate): 0.72 ± 0.04
[1]; [6]
  in vitro v rel: 0.68
[1]; pH 7.3, 37 °C, 0.5 mM NAD+
  Vrel/K: 2.2

## CCO [Ethanol, ethanol]
[7]
  %ADH (estimated percentage of elimination due to ADH): 89%
rat, in vivo
  in vivo rate of elimination: 7.9 ± 1.0 mmol/kg/h
ADH3
  activity of ADH3: no detectable activity
[2]
  Km: 9.6 mM
  possible contribution to the rate of ethanol metabolism: 20–25%
[3]
  rate of elimination: about 2.2 mmol/kg•h
[4]; fed rats
  rate of elimination: about 8 mmol/kg•h
[4]; [13]
  Km of inhibitor-insensitive elimination: 21 mmol/kg
  Vmax of inhibitor-insensitive elimination: 2.1 mmol/kg/h
[1]; [10]
  Km: 0.64 ± 0.22 mM
  V rel (Vmax relative to ethanol as substrate): (1.0)
[1]; [6]
  in vitro v rel: 0.88
[1]; pH 7.3, 37 °C, 0.5 mM NAD+
  Vrel/K: 1.6

## CO [Methanol]
Fed rat, MP+AT, methanol 10 mmole/kg i.p.
  Rate (zero-order elimination): 0.41 mmol/kg/h
rat, in vivo
  time required to eliminate the dose: 15 h
rat, in vivo, ip
  Rate (zero-order elimination): 0.56 ± 0.01 mmol/kg/h
Rat liver ADH1
  Vmax relative to ethanol: 0.10
[2]
  Km: 22 mM

## CC(C)C(N)=O [isobutyramide]
Ethanol elimination
  in vivo Ki (uncompetitive): 1 mmol/kg

## c1cn[nH]c1 [pyrazole, reference compound]
[1]; 10 mM pyrazole
  Inhibition of the ADH reactions: almost totally inhibited

## O=C1CCCCO1 [δ-valerolactone]
Horse liver ADH1E
  concentration formed in dismutation reaction: ~ 2 mM
